# Data from patent US11230555B2, “Bicyclic RORγ modulators” (Escalier Biosciences B.V., priority 2018, dated 2022).
# pIC50: −log10 of the molar value.
# Molecular target: T1, RORγt (Homo sapiens, UniProt P51449)
# T1 construct: purchased reporter-cell kit
# T1 sequence (P51449 269-508 limits assumed): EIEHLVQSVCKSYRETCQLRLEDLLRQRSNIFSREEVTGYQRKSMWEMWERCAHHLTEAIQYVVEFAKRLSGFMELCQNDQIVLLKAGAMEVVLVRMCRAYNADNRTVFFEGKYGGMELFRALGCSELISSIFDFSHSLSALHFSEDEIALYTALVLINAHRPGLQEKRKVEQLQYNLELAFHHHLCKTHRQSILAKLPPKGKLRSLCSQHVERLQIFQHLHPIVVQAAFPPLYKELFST
# Test: Gal4 ligand binding assay (RORγt Gal fusion reporter assay)
# Type: cell-based
# Settings: inverse agonists, luciferase reporter, 24h
# Experimental: Compounds of the present invention were tested in a human RORγ ligand binding assay using a commercially available cell based ligand binding reporter assay in 96-well format (Cat #IB04001, INDIGO Biosciences, State College, Pa.). The N-terminal DNA binding domains (DBD) of the native RORγ and RORγt receptors have been substituted with that of the yeast GAL4-DBD and stably transfected in […] cells that also stably express luciferase under the regulation by upstream activation sequence of yeast Gal4. These cells constitutively express high level RORγ activity due to binding of endogenous co-factors. Both agonist and inverse agonist activity can be detected. The assay was performed according to kit manufacturer's instructions as follows. 10 mM compound stocks were diluted serially 1:3 with DMSO and further diluted with provided media to generate 10 titration points from 60 μM to 3 nM. These treatment conditions were added to the plates as 2× media in 100 μL volume. Each plate includes a positive control with 10 titration points as well as 6negative control wells with vehicle only, with final DMSO concentration of 0.2%. RORγ reporter cells were rapidly thawed and added to the plates in 100 μL volume. The plates were incubated for 24h in a 37° C. humidified 5% CO2incubator. Media was removed before the addition of room temperature luciferous detection substrate. After 5 minute incubation, relative light units (RLUs) were quantified using a plate reading luminometer. Data was normalized to positive control wells with only […]. Before establishing internal controls, ursolic acid was used as control.
row,SMILES,pIC50
1,CC(C)c1cc(CN2CC3CCC(C2)N3S(C)(=O)=O)ccc1-c1ccc(C(O)(C(F)(F)F)C(F)(F)F)cc1F [Example 21],6.60 to 7.30
2,"Cc1cc(CN2CC3CCC(C2)N3Cc2ccnc(O)c2)ccc1-c1ccc(C(O)(C(F)(F)F)C(F)(F)F)cc1 [Example 70, 4-((3-((4′-(1,1,1,3,3,3-hexafluoro-2-hydroxypropan-2-yl)-2-methyl-[1,1′-biphenyl]-4-yl)methyl)-3,8-diazabicyclo[3.2.1]octan-8-yl)methyl)pyridin-2-ol]",< 6.60
3,"CCc1cc(CN2CC3CCC(C2)N3S(C)(=O)=O)ccc1-c1ccc(C(O)(C(F)(F)F)C(F)(F)F)cc1C [Example 34, 2-(2′-ethyl-2-methyl-4′-((8-(methylsulfonyl)-3,8-diazabicyclo[3.2.1]octan-3-yl)methyl)-[1,1′-biphenyl]-4-yl)-1,1,1,3,3,3-hexafluoropropan-2-ol]",> 7.30
4,CCc1c(-c2ccc(C(O)(C(F)(F)F)C(F)(F)F)cc2)cc(F)c(CN2CC3CCC(C2)N3S(C)(=O)=O)c1F [Example 14],> 7.30
5,"CCc1cc(CN2CC3CCC(C2)N3S(C)(=O)=O)ccc1-c1ccc(C(O)(C(F)(F)F)C(F)(F)F)cc1F [Example 24, 2-(2′-ethyl-2-fluoro-4′-((8-(methylsulfonyl)-3,8-diazabicyclo[3.2.1]octan-3-yl)methyl)-[1,1′-biphenyl]-4-yl)-1,1,1,3,3,3-hexafluoropropan-2-ol]",> 7.30
6,"Cc1cc(CN2CC3CCC(C2)C3NS(C)(=O)=O)ccc1-c1ccc(C(O)(C(F)(F)F)C(F)(F)F)cc1 (stereo not shown) [Example 46, N-(3-((4′-(1,1,1,3,3,3-hexafluoro-2-hydroxypropan-2-yl)-2-methyl-[1,1′-biphenyl]-4-yl)methyl)-3-azabicyclo[3.2.1]octan-8-yl)methanesulfonamide]",< 6.60
7,"CS(=O)(=O)N1C2CCC1CN(Cc1ccc(-c3ccc(C(O)(C(F)(F)F)C(F)(F)F)cc3)c(F)c1)C2 [Example 61, 1,1,1,3,3,3-hexafluoro-2-(2′-fluoro-4′-((8-(methylsulfonyl)-3,8-diazabicyclo[3.2.1]octan-3-yl)methyl)-[1,1′-biphenyl]-4-yl)propan-2-ol]",< 6.60
8,"CCc1cc(CN2[C@@H]3COC[C@H]2CN(S(C)(=O)=O)C3)ccc1-c1ccc(C(O)(C(F)(F)F)C(F)(F)F)cc1 [Example 8, 2-(2′-ethyl-4′-(((1R,5S)-7-(methylsulfonyl)-3-oxa-7,9-diazabicyclo[3.3.1]nonan-9-yl)methyl)-[1,1′-biphenyl]-4-yl)-1,1,1,3,3,3-hexafluoropropan-2-ol]",6.60 to 7.30
9,"COCCC(=O)N1C2CCC1CN(Cc1ccc(-c3ccc(C(O)(C(F)(F)F)C(F)(F)F)cc3)c(C)c1)C2 [Example 45, 1-(3-((4′-(1,1,1,3,3,3-hexafluoro-2-hydroxypropan-2-yl)-2-methyl-[1,1′-biphenyl]-4-yl)methyl)-3,8-diazabicyclo[3.2.1]octan-8-yl)-3-methoxypropan-1-one]",< 6.60
10,"Cc1cc(CN2CC3CCC2CN3S(C)(=O)=O)ccc1-c1ccc(C(O)(C(F)(F)F)C(F)(F)F)cc1 (stereo not shown) [Example 50, 1,1,1,3,3,3-hexafluoro-2-(2′-methyl-4′-((5-(methylsulfonyl)-2,5-diazabicyclo[2.2.2]octan-2-yl)methyl)-[1,1′-biphenyl]-4-yl)propan-2-ol]",< 6.60
11,"OC(c1ccc(-c2ccc(CN3CC4CCC(C3)N4Cc3ccncc3)cc2C(F)(F)F)cc1)(C(F)(F)F)C(F)(F)F [Example 58, 1,1,1,3,3,3-hexafluoro-2-(4′-((8-(pyridin-4-ylmethyl)-3,8-diazabicyclo[3.2.1]octan-3-yl)methyl)-2′-(trifluoromethyl)-[1,1′-biphenyl]-4-yl)propan-2-ol]",> 7.30
12,"CCc1c(-c2ccc(C(O)(C(F)(F)F)C(F)(F)F)cc2C)cc(F)c(CN2CC3CCC(C2)N3S(C)(=O)=O)c1F [Example 28, 2-(2′-ethyl-3′,5′-difluoro-2-methyl-4′-((8-(methylsulfonyl)-3,8-diazabicyclo[3.2.1]octan-3-yl)methyl)-[1,1′-biphenyl]-4-yl)-1,1,1,3,3,3-hexafluoropropan-2-ol]",> 7.30
13,"CCc1cc(CN2CC3CCC(C2)N3C(C)=O)ccc1-c1ccc(C(O)(C(F)(F)F)C(F)(F)F)cc1 [Example 39, 1-(3-((2-ethyl-4′-(1,1,1,3,3,3-hexafluoro-2-hydroxypropan-2-yl)-[1,1′-biphenyl]-4-yl)methyl)-3,8-diazabicyclo[3.2.1]octan-8-yl)ethan-1-one]",> 7.30
14,"CCc1cc(CN2CC3CCC(C2)N3S(C)(=O)=O)ncc1-c1ccc(C(O)(C(F)(F)F)C(F)(F)F)cc1C [Example 3, 2-(4-(4-ethyl-6-((8-(methylsulfonyl)-3,8-diazabicyclo[3.2.1]octan-3-yl)methyl)pyridin-3-yl)-3-methylphenyl)-1,1,1,3,3,3-hexafluoropropan-2-ol]",6.60 to 7.30
15,"Cc1cc(C(O)(C(F)(F)F)C(F)(F)F)ccc1-c1ccc(CN2CC3CCC(C2)N3S(C)(=O)=O)cc1C(C)C [Example 35, 1,1,1,3,3,3-hexafluoro-2-(2′-isopropyl-2-methyl-4′-((8-(methylsulfonyl)-3,8-diazabicyclo[3.2.1]octan-3-yl)methyl)-[1,1′-biphenyl]-4-yl)propan-2-ol]",6.60 to 7.30
16,"CC(C)c1cc(CN2CC3CCC(C2)N3S(C)(=O)=O)c(F)cc1-c1ccc(C(O)(C(F)(F)F)C(F)(F)F)cc1Cl [Example 15, 2-(2-chloro-5′-fluoro-2′-isopropyl-4′-((8-(methylsulfonyl)-3,8-diazabicyclo[3.2.1]octan-3-yl)methyl)-[1,1′-biphenyl]-4-yl)-1,1,1,3,3,3-hexafluoropropan-2-ol]",> 7.30
17,"CCc1c(-c2ccc(C(O)(C(F)(F)F)C(F)(F)F)cc2Cl)cc(F)c(CN2CC3CCC(C2)N3S(C)(=O)=O)c1F [Example 10, 2-(2-chloro-2′-ethyl-3′,5′-difluoro-4′-((8-(methylsulfonyl)-3,8-diazabicyclo[3.2.1]octan-3-yl)methyl)-[1,1′-biphenyl]-4-yl)-1,1,1,3,3,3-hexafluoropropan-2-ol]",> 7.30
18,"CCCS(=O)(=O)N1C2CCC1CN(Cc1ccc(-c3ccc(C(O)(C(F)(F)F)C(F)(F)F)cc3)c(C)c1)C2 [Example 68, 1,1,1,3,3,3-hexafluoro-2-(2′-methyl-4′-((8-(propylsulfonyl)-3,8-diazabicyclo[3.2.1]octan-3-yl)methyl)-[1,1′-biphenyl]-4-yl)propan-2-ol]",< 6.60
19,"OC(c1ccc(-c2ccc(CN3CC4CCC(C3)N4Cc3ccncc3)cc2Br)cc1)(C(F)(F)F)C(F)(F)F [Example 41, 2-(2′-bromo-4′-((8-(pyridin-4-ylmethyl)-3,8-diazabicyclo[3.2.1]octan-3-yl)methyl)-[1,1′-biphenyl]-4-yl)-1,1,1,3,3,3-hexafluoropropan-2-ol]",> 7.30
20,"Cc1cc(CN2CC3CCC(C2)N3Cc2ccc(F)cc2)ccc1-c1ccc(C(O)(C(F)(F)F)C(F)(F)F)cc1 [Example 77, 1,1,1,3,3,3-hexafluoro-2-(4′-((8-(4-fluorobenzyl)-3,8-diazabicyclo[3.2.1]octan-3-yl)methyl)-2′-methyl-[1,1'-biphenyl]-4-yl)propan-2-ol]",< 6.60
21,"Cc1cc(CN2CC3CCC(C2)N3Cc2ccnnc2)ccc1-c1ccc(C(O)(C(F)(F)F)C(F)(F)F)cc1 [Example 51, 1,1,1,3,3,3-hexafluoro-2-(2′-methyl-4′-((8-(pyridazin-4-ylmethyl)-3,8-diazabicyclo[3.2.1]octan-3-yl)methyl)-[1,1′-biphenyl]-4-yl)propan-2-ol]",> 7.30
22,"CCc1cc(CN2C3CCC2CN(S(C)(=O)=O)C3)ccc1-c1ccc(C(O)(C(F)(F)F)C(F)(F)F)cc1 [Example 6, 2-(2′-ethyl-4′-((3-(methylsulfonyl)-3,8-diazabicyclo[3.2.1]octan-8-yl)methyl)-[1,1′-biphenyl]-4-yl)-1,1,1,3,3,3-hexafluoropropan-2-ol]",6.60 to 7.30
23,"CCc1cc(CN2CC3CCC(C2)N3S(C)(=O)=O)ccc1-c1ccc(C(O)(C(F)(F)F)C(F)(F)F)cc1CC [Example 25, 2-(2,2′-diethyl-4′-((8-(methylsulfonyl)-3,8-diazabicyclo[3.2.1]octan-3-yl)methyl)-[1,1′-biphenyl]-4-yl)-1,1,1,3,3,3-hexafluoropropan-2-ol]",> 7.30
24,"Cc1cc(CN2CC3CCC(C2)N3S(=O)(=O)CC(F)(F)F)ccc1-c1ccc(C(O)(C(F)(F)F)C(F)(F)F)cc1 [Example 67, 1,1,1,3,3,3-hexafluoro-2-(2′-methyl-4′-((8-((2,2,2-trifluoroethyl)sulfonyl)-3,8-diazabicyclo[3.2.1]octan-3-yl)methyl)-[1,1′-biphenyl]-4-yl)propan-2-ol]",< 6.60
25,"CCc1cc(CN2CC3COCC(C2)N3S(C)(=O)=O)ccc1-c1ccc(C(O)(C(F)(F)F)C(F)(F)F)cc1 [Example 12, 2-(2′-ethyl-4′-((9-(methylsulfonyl)-3-oxa-7,9-diazabicyclo[3.3.1]nonan-7-yl)methyl)-[1,1′-biphenyl]-4-yl)-1,1,1,3,3,3-hexafluoropropan-2-ol]",6.60 to 7.30
